Converted amounts (≈) assume the structure as drawn.
Experiments:
Format in all cases: cell-based
[1] = test system: Escherichia coli (10536 strain); assay: 15 second contact suspension kill assay (Example 1 protocol, also Example 3); conditions: Escherichia coli, 15 s; component alone; lowest tested concentration giving zero bacterial survival after 15 s; upper boundary; read-out: Minimum biocidal concentration (MBC)
Excerpt: The efficacies of antimicrobial agents can be usefully compared by determining the Minimum Biocidal Concentration (MBC). The MBC is defined as the lowest absolute concentration of the particular active that provides complete kill (zero bacterial growth). The differing behaviours of inhibitory antimicrobtals in Isolation and mixtures have been widely explored using the concept of the Fractional Concentration and Fractional Inhibitory Concentration (FIC). See for instance J R W Lambert and R Lambert, J. Appl. Microblol 95, 734 (2003); T. Jadavji. C G Prober and R Cheung. Antimicrobial Agents and Chemotherapy 26, 91 (1984), and WO 2004/006876. These parameters can be defined as follows:
[formula] [formula] By analogy the Fractional Biocidal Concentration (FBC) is given by:
Antimicrobial efficacy is tested against a representative pathogenic bacterial organism, Gram negative Escherichia coli. Concentrations of actives are expressed in terms of the percentage weight/volume (% w/v) throughout Example 1.
An overnight culture of Escherichia coli (10536 strain) was prepared in 50 ml total volume of TSB broth, grown for ca. 18 hrs at 37° C. and shaken at 150 rpm. 1 ml of this overnight E. coli culture was transferred to 50 ml of fresh TSB broth and incubated at 37° C. at 150 rpm for ca. 4 hours. This culture was separated into equal volumes and centrifuged at 4000 rpm for 15 minutes, washed with sterile saline (0.85% NaCl), centrifuged once more and re-suspended in saline to give a final concentration of 0.8 OD620 equivalent to about 10^8 cells per milliliter for this particular organism. Here, OD620 indicates the absorbance of a sample in a cuvette of 1.0 cm path length at a wavelength of 620 nm. This bacterial stock was used for assaying against antimicrobial actives (in triplicate).
The following assay describes the testing of 8 materials using 6 dilutions across half of a 96-well micro titre plate (MTP). Using this approach it is possible to assay 16 actives (without replicates) with one full dilution plate, replicating this set up in two halves of the plate columns, 1-6 and 7-12.
1M solutions of the test actives were prepared in dimethylsulphoxide (DMSO).
Aliquots (270 μl) of the materials at 1.11 times the final concentration were dispensed into the wells of the MTP along one column (A1-H1). This MTP was labelled as the “Screening plate”.
In another MTP, labelled as the “Dilution plate”, 270 μl of D/E neutralising solution from DIFCO Composition was added to column 1. The composition of the neutralising solution was as follows: pancreatic digest of casein, 5.0 g/L; Yeast Extract, 2.5 g/L; Dextrose, 10 g/L, sodium thioglycollate, 1.0 g/L, sodium thiosulphate, 6.0 g/L; sodium bisulphite, 2.5 g/L; Polysorbate 80, 5.0 g/L; lecithin 7.0 g/L; bromocresol purple, 0.02 g/L with a pH in the range 7.6±0.2.
270 μl of tryptone diluent solution was added to all the remaining wells of the Dilution MTP (columns 2-6).
Bacterial stock (30 μl) was then added to the prepared 270 μl of the solution of actives in the Screening Plate and mixed, using a multichannel pipette with 8 tips to aspirate and dispense the same volume of bacterial stock in parallel to 8 wells in rows A-H. After a contact time of 15 seconds, the mixtures were quenched by transferring 30 μl volumes of the mixtures into the 270 μl D/E neutralising solution in the prepared dilution plate, using aspiration to mix. After exactly 5 minutes in the DIE neutralising solution, 30 μl volumes were transferred from column 1 to column 2 of the Dilution MTP and mixed, before transferring further 30 μl volumes from column 2 into column 3. This process was repeated serially diluting the bacteria across the plate to column 6.
30 μl volumes from each well in the Dilution MTP were transferred onto pre-labelled segment of Tryptone Soya Agar (TSA) plates starting from the lowest bacterial concentration (highest dilution, column 6) to the highest bacterial concentration (column 1).

[2] = test system: Escherichia coli (E. coli - ATCC #10536); assay: High resolution MBC synergy assay in phosphate buffer containing 35% dipropylene glycol, 15 seconds (Example 2); conditions: 15 s, complete kill; phosphate buffer with 35% DPG
Experimental: In this Example, a wide range of combinations of chemicals was tested by conducting high resolution MBC assays of monosubstituted phenols in the presence of various concentrations of terpineol. […] High resolution MBCs were determined by adding varying amounts of microbicide to one column of a microtiter plate and doing subsequent […] dilutions using an automated liquid handling system to obtain a series of endpoints ranging from 0.002% to 1% of the test compound. The MBC plate was inoculated one column at a time with the test microorganism. An aliquot of the inoculated well was transferred at 15 seconds to a plate containing a neutralizing agent (D/E Neutralizing Broth), mixed and held for 5 minutes before being transferred to a growth plate containing trypticase soy broth (TSB). The TSB plate was incubated at 37° C. and read for the presence/absence of growth at 24 hours.
This microorganism is representative of natural contaminants in many consumer and industrial applications.

[3] = test system: Escherichia coli (E. coli - ATCC #10536); assay: Automated assessment of efficacy in surfactant base, 15 seconds exposure, OD450/OD590 readout (Example 4); conditions: for antimicrobial action in combination with terpineol in the presence of surfactant (in words): cocoyl glycinate and lauroamphoacetate; for MBC: Escherichia coli, ATCC10536, 15 s, in 2.85% sodium cocoyl glycinate + 1.85% sodium lauroamphoacetate solution at pH 10, 15 s
Experimental: In these examples, the efficacy of combinations of monosubstituted phenols and terpineol were tested in a surfactant cleansing formulation comprising 2.85% sodium cocoyl glycinate and 1.85% sodium lauroamphoacetate. This corresponds to a 50% in use dilution with water of a typical neat formulation containing 5.7% cocoyl glycinate and 3.7% % sodium lauroamphoacetate during hand washing. Solutions were prepared such that the concentrations of the surfactant components and test actives were 1.1 times the final desired concentration in order to allow for dilution with the bacterial inoculum in the test. The solutions were manually adjusted to pH 10.0 by dropwise addition of sodium hydroxide solution, as measured with a pH meter at ambient temperature. Solutions of the monosubstituted phenols and/or terpineols were prepared at a maximum of 24 hours before testing. The same terpineol was used as in Example 1.
The efficacy of the combinations of the present invention was determined against the same bacterium as in Example 1, Escherichia coli (E. coli—ATCC #10536), at a concentration of approximately 1×10^8 bacteria per mL.
Tests were conducted using standard microtiter plate assays using an automated liquid handling system. 270 μl of the surfactant test solution was pipetted into each well of the microtitre plate (Nunc F Gamma Irradiated 96F untreated microtitre plates of clear polystyrene) and 30 μl of the bacterial suspension was then added. After exactly 15 seconds of bacterial exposure, a 30 μl volume of bacterial cells was withdrawn and transferred to 270 μl of D/E quench solution. After 5 minutes in the D/E quench, the optical density (OD) was measured for each plate in turn at two specific wavelengths (450 nm and 590 nm). These provide a dual check of antimicrobial activity, as the OD450 reading is specific for the yellow colour of D/E quench when bacterial growth is observed, whereas OD590 is specific for the initial purple colour of the D/E quench which is retained if no bacterial growth is observed. After the time zero OD measurements, plates were then incubated at 37° C. overnight (16 hours) before repeating the OD measurements. Delta OD values were calculated by subtracting […] at time=16 hours. Bacterial growth is observed as an increase in OD450 and a decrease in OD590. To identify antibacterially efficacious systems (those preventing appreciable bacterial growth after incubation), the following threshold changes in OD readings have been adopted: if (1). OD450 increases by less than 0.2 absorbance unit (AU) on incubation and (2). OD590 decreases by less than 0.35 AU on incubation. Conversely, where OD450 increases by more than […] after incubation, corresponding to a colour shift from purple to yellow, the test system allows bacterial growth and is not deemed efficacious. Four replicate measurements in the same plate have been made for each test system. The number of replicate wells showing either bacterial growth or no growth is also readily assessed by eye by following the colour change. Thymol and terpineol were tested both alone and in combination for comparison purposes.
In some selected cases, the combinations were also tested at the weight ratio 1:1.
The surfactants used are not themselves antimicrobially active against E. coli at the concentrations employed as shown by the results of Ex. (4:1) in Table 24. Thus, any antimicrobial efficacy can be ascribed to the monosubstituted phenols and/or terpineol. Table 25 presents MBC-values determined similarly as described for Example 1.

Row | Structure (SMILES) | MBC [1] [µg/mL] | MBC of first component alone (MBCA; Ca at Cb = 0) [2] [weight %] | antimicrobial action in combination with terpineol in the presence of surfactant (in words) [3] | MBC [3] [µg/mL] | MBC of second component (terpineol) alone (MBCB; Cb at Ca = 0) [2] [weight %]
1 | CCCc1ccc(O)cc1 [4-n-propylphenol] | 750 (≈ 5.51 mM) | 0.3 | enhanced antimicrobial action | – | –
2 | CCCc1cccc(O)c1 [3-n-propylphenol] | – | 0.05 | enhanced antimicrobial action | 1750 | –
3 | Oc1ccccc1Cc1ccccc1 [2-benzylphenol] | 500 (≈ 2.71 mM) | 0.6 | enhanced antimicrobial action | > 2000 | –
4 | CCCCCc1ccc(O)cc1 [4-pentylphenol] | 250 (≈ 1.52 mM) | 1.0 | – | > 2000 | –
5 | Oc1ccc(C2CCCC2)cc1 [4-cyclopentylphenol] | 800 (≈ 4.93 mM) | 0.6 | – | > 2000 | –
6 | Oc1ccc(Cc2ccccc2)cc1 [4-benzylphenol] | 500 (≈ 2.71 mM) | 0.5 | enhanced antimicrobial action | > 2000 | –
7 | CC(C)(C)c1ccccc1O [2-tert-butylphenol] | 500 (≈ 3.33 mM) | 0.2 | enhanced antimicrobial action | 1750 | –
8 | CCCc1ccccc1O [2-n-propylphenol] | – | 0.3 | enhanced antimicrobial action | – | –
9 | Oc1ccccc1C1CCCC1 [2-cyclopentylphenol] | 1000 (≈ 6.16 mM) | 0.8 | enhanced antimicrobial action | > 2000 | –
10 | CC1=CCC(C(C)(C)O)CC1 (stereo not drawn) [alpha-terpineol] | – | – | – | – | 0.6
11 | CCC(C)c1ccccc1O (centres unmarked) [2-sec-butylphenol] | 500 (≈ 3.33 mM) | 0.2 | enhanced antimicrobial action | > 2000 | –

— patent US9504248B2, “Antimicrobial composition” (Rohm and Haas Company, priority 2011, dated 2016)
